These results are taken from patent publication US10525139B2, “Folate-conjugated molecules for delivery of toxic small molecule inhibitors to cancer cells and methods of use” (priority 2014, dated 2020).

SMILES strings stand for the structures. Entries after “also recorded” stand apart in the source; their conditions may differ.

For experiment [1], the system named is NOTCH1 L1601P ΔPEST T-ALL. In words: Syngeneic T-ALL mouse model carrying NOTCH1 L1601P ΔPEST. It is filed as in vivo. On the procedure:
Viability data is represented as percentage relative to vehicle treatment and errors bars denote mean±SD of 3 replicates. Statistical significance of treated vs. vehicle (DMSO) samples (***P≤0.01; ***P≤0.001) was determined by one-way ANOVA with Bonferroni's correction for multiple comparison testing. […] The immunoblot contains cell lysates stained with anti-ICN1 antibody (Val1744) after treatment with the 10 μM of JQ-FT for 24 hours in vitro. GAPDH was used as a loading control ICN1 loss was quantified and bar graph (panel e) corresponds to the results of the quantification of three independent experiments. Statistical significance of treated vs. vehicle (DMSO) samples (*P≤0.05) was determined by Student's t-test. Expression of indicated NOTCH1 target genes HesI (panel d) and Dtx1 (panel e) in murine NOTCH1 L1601P ΔPEST expressing leukemia lymphoblasts treated with 10 μM JQ-FT for 24 hours was determined by qRT-PCR. Error bars indicate the mean±SD of 3 replicates. Data were analyzed using the ΔΔCT method and plotted as a percentage relative to the control gene Gapdh. Statistical significance for treated vs. vehicle (DMSO) (*P≤0.05) was determined by Student's t-test. […] The spleen and the liver of all mice were examined; representative results for one control animal and one JQ-FT-treated animal are shown. Formalin-fixed, paraffin-embedded tissue sections were stained using the hematoxylin and eosin stain (H & E) method. […] Anti-leukemic activity of JQ-FT was assessed by measuring spleen weight upon 5 days of JQ-FT treatment (60 mg/kg I.P) or vehicle (65% D5W+30% PEG-400+5% Tween-80only). […] Statistical significance for treated vs. vehicle (*P≤0.05) was determined by non-parametric t-test (Mann-Whitney). […] Error bars indicate mean±SD of 4 replicates (of the 4 animals of each group). Statistical significance for treated vs. vehicle (*P≤0.05) was determined by non-parametric t-test (Mann-Whitney). […] The immunoblot contains splenic cell lysates stained with anti-ICN1 antibody (Val1744) after treatment with the 60 mg/Kg of JQ-FT for 5 days. GAPDH was used as a loading control. ICN1 loss was quantified and bar graph (j) corresponds to the results of the quantification. Statistical significance for treated vs. vehicle (*P≤0.05) was determined by Student's t-test.
In vitro studies provide valuable mechanistic insights but may not recapitulate tumor micro-environment and metabolic conditions in vivo. Indeed, a significant limitation of research on folate-conjugate drugs is the inconsistency between free folate concentrations (and other middle metabolites) in culture conditions in vitro versus in vivo. High levels of free folic acid in the sera may block the binding and uptake of JQ-FT in FR2-positive T-ALL compromising the anti-NOTCH1 leukemia effect observed in vitro. To explore the therapeutic efficacy of JQ-FT in vivo, we studied effects on a syngeneic T-ALL mouse model carrying a NOTCH1 L1601P ΔPEST, a common mutation observed in the human disease. First, leukemia cells obtained from this model were treated with JQ-FT for 24 hours in vitro.
Though the JQ-FT conjugate has not, as yet, been optimized for pharmacologic properties, we are eager to explore the utility of the compound as an in vivo chemical probe, while assessing putative tolerability of folate-conjugated thapsigargins. We first established the maximal tolerated dose (MTD) of JQ-FT as 60 mg/kg/day in mice, as administered by daily intraperitoneal injection. […]

In a further experiment the test system is panel of cell lines. In words: Apoptosis luminescence assay (Caspase) in a panel of cell lines. In kind it is cell-based. The conditions noted are these: 384-well plates, 72 hours. On the procedure: Cells were grown in 384-well plates and treated for 72 hours with the indicated dose of Folate-Thap. Apoptosis was measured using a luminescence assay developed by Promega.

Regarding `C/C=C(/C)C(=O)O[C@H]1C(C)=C2C([C@@H]1OC(=O)CCCCCCC)[C@@](C)(OC(C)=O)C[C@H](OC(=O)CC[C@H](NC(=O)c1ccc(NCc3cnc4nc(N)[nH]c(=O)c4n3)cc1)C(=O)O)[C@@]1(O)[C@H]2OC(=O)[C@@]1(C)O` (stereo partly drawn) [JQ-FT], in experiment [1] (60 mg/kg IP daily, five days), the “bone marrow infiltration by T-ALL (GFP+ leukemia cells)” value is “markedly inhibited”; the “leukemic infiltration in spleen and liver (histology)” value is “decrease of leukemic infiltration in spleen and liver; also recorded: Growth suppression of lymphoblasts”; the spleen weight result was “reduction in spleen weight”; the tumor growth result is reported as “evident decrease in tumor growth”. Moreover, in experiment [1] (60 mg/kg, 5 days, splenic cell lysates, vs vehicle), the “ICN1 expression in T-ALL cells from treated animals” value is reported as “reduced ICN1 expression”. Also, in the experiment on panel of cell lines, the “apoptosis as measured by Caspase” value is listed as “apoptotic effect”.
